Results reported in US20130231347A1, “METHOD OF TREATMENT WITH BRAF INHIBITOR” (GLAXOSMITHKLINE INTELLECTUAL PROPERTY (NO.2) LIMITED, priority 2010, published 2013).
Like-named read-outs stand apart in the source and are kept apart here.

Experiments:
[1] = test system: 16R6-2 (A375 F11 clone with acquired resistance to Compound A); assay: Cell growth inhibition assay (Cell Titer Glo, 3 days); format: cell-based; settings: Homo sapiens, A-375, 72 h, MEK1 P387P/S, single agent
Procedure: (§1) A clonal isolate, hereinafter referred to as “A375 F11”, was obtained from the A375 cell line (obtained from ATCC), based on increased sensitivity to a BRAF inhibitor. A375 F11 cells were exposed to increasing concentrations of Compound A and maintained in a final concentration of 1.26 μM or 1.6 μM. 12R5-3, 12R8-1, 12R8-3, 16R5-5, 16R6-2, 16R6-3 and 16R6-4 were derived as single cell clones from mixed populations of these A375 F11 cells selected to grow in the presence of Compound A. All cells were grown in RPMI 1640 medium containing 10% Fetal Bovine Serum (FBS).
(§2) All cells were cultured without compound, e.g. Compound A, for a minimum of 72 hours prior to cell plating. Cells were assayed in a 96-well tissue culture plate (NUNC 136102) of RPMI medium containing 10% FBS for all cells at 1,000 cells per well. Approximately 24 hours after plating, cells were exposed to ten, three-fold serial dilutions of compound or the combination of the two agents at a constant molar to molar ratio, e.g. 10:1 Compound A to Compound B, in RPMI media containing 10% FBS. Cells were incubated in the presence of compounds for 3 days. ATP levels were determined by adding Cell Titer Glo® (Promega) according to the manufacturer's protocol. Briefly, Cell Titer Glo® was added each plate, incubated for 30 minutes then luminescent signal was read on the SpectraMax L plate reader with a 0.5 sec integration time. Inhibition of cell growth was estimated after treatment with compound or combination of compounds for three days and comparing the Cell Titer Glo® signal to cells treated with vehicle (DMSO). Cell growth was calculated relative to vehicle (DMSO) treated control wells.
(§3) For single agent and combination treatments, cells were exposed to compounds at a fixed-dose-ratio, and dose response curves were fit to the experimental data and analyzed using regression models.

[2] = test system: 16R5-5 (A375 F11 clone with acquired resistance to Compound A); assay: as above; format: cell-based; settings: Homo sapiens, A-375, 72 h, MEK1 P387P/S, single agent
Procedure: as §1, §2, §3

A375 F11 cells = assay: as above; format: cell-based; settings: Homo sapiens, 72 h, MEK1 WT, single agent
Procedure: as §1, §2, §3

[3] = test system: 12R8-1 (A375 F11 clone with acquired resistance to Compound A); assay: as above; format: cell-based; settings: Homo sapiens, A-375, 72 h, MEK1 WT, single agent
Procedure: as §1, §2, §3

[4] = test system: 12R5-5 (A375 F11 clone with acquired resistance to Compound A); assay: as above; format: cell-based; settings: Homo sapiens, A-375, 72 h, MEK1 HET 59delK, single agent
Procedure: as §1, §2, §3

[5] = test system: 12R5-1 (A375 F11 clone with acquired resistance to Compound A); assay: as above; format: cell-based; settings: Homo sapiens, A-375, 72 h, MEK1 HET 59delK, single agent
Procedure: as §1, §2, §3

[6] = test system: A375 F11 clones that acquired resistance to Compound A; assay: Cell growth inhibition assay, resistant A375 clones taken together; settings: Homo sapiens
Procedure: as §1, §2, §3

[7] = test system: YUSIT1 clones that acquired resistance to Compound A (BRAF V600K); assay: Cell growth inhibition assay, resistant YUSIT1 clones; format: cell-based, human; settings: YUSIT1 clones resistant to Compound A
Excerpt: The YUSIT1 melanoma cells were obtained from Yale Dermatology Cell Culture Facility.

[8] = test system: 12R9 (A375 F11 line with acquired resistance to Compound A); assay: Cell growth inhibition assay (Cell Titer Glo, 3 days); format: cell-based; settings: Homo sapiens, A-375, 72 h, Table 3, 12R9: NRAS Q61Q/R, MEK1 ND, single agent
Procedure: as §1
All cells were cultured without compound, e.g. Compound A, for a minimum of 72 hours prior to cell plating. Cells were assayed in a 96-well tissue culture plate (NUNC 136102) of RPMI medium containing 10% FBS for all cells at 1,000 cells per well. […] ATP levels were determined by adding Cell Titer Glo® (Promega) according to the manufacturer's protocol. Briefly, Cell Titer Glo® was added each plate, incubated for 30 minutes then luminescent signal was read on the SpectraMax L plate reader with a 0.5 sec integration time. […] Cell growth was calculated relative to vehicle (DMSO) treated control wells.
as §3

[9] = test system: 12R5-3 (A375 F11 clone with acquired resistance to Compound A); assay: as above; format: cell-based; settings: Homo sapiens, A-375, 72 h, MEK1 WT, single agent
Procedure: as §1, §2, §3

[10] = test system: 16R6-3 (A375 F11 clone with acquired resistance to Compound A); assay: as above; format: cell-based; settings: Homo sapiens, A-375, 72 h, MEK1 P387P/S, single agent
Procedure: as §1, §2, §3

[11] = test system: 12R8-3 (A375 F11 clone with acquired resistance to Compound A); assay: as above; format: cell-based; settings: Homo sapiens, A-375, 72 h, MEK1 WT, single agent
Procedure: as §1, §2, §3

[12] = test system: 16R6-4 (A375 F11 clone with acquired resistance to Compound A); assay: as above; format: cell-based; settings: Homo sapiens, A-375, 72 h, A146A/T, MEK1 P387P/S, single agent
Procedure: as §1, §2, §3

CC(=O)Nc1cccc(-n2c(=O)n(C3CC3)c(=O)c3c(Nc4ccc(I)cc4F)n(C)c(=O)c(C)c32)c1 [Compound B, N-{3-[3-cyclopropyl-5-(2-fluoro-4-iodo-phenylamino)-6,8-dimethyl-2,4,7-trioxo-3,4,6,7-tetrahydro-2H-pyrido[4,3-d]pyrimidin-1-yl]phenyl}acetamide]
IC50 ([1]; 16R6-2: NRAS Q61Q/K, read-out: IC50, Single Agent Effect, Compound B): 99 ± 58 nM
IC50 ([1]; Table 3, 16R6-2: NRAS Q61Q/K, read-out: IC50, Single Agent, Compound B): 339 ± 366 nM
IC50 ([2]; 16R5-5: NRAS Q61Q/K, read-out: IC50, Single Agent Effect, Compound B): 129 ± 54 nM
IC50 ([2]; Table 3, 16R5-5: NRAS Q61Q/K, read-out: IC50, Single Agent, Compound B): 97 nM
IC50 (A375 F11 cells; F11: NRAS WT, mean ± std, read-out: IC50, Single Agent Effect, Compound B): 2 ± 2 nM
IC50 (A375 F11 cells; Table 3, F11: NRAS WT, read-out: IC50, Single Agent, Compound B): 6 ± 4 nM
IC50 ([3]; 12R8-1: NRAS A146A/T, read-out: IC50, Single Agent Effect, Compound B): 81 ± 31 nM
IC50 ([3]; Table 3, 12R8-1: NRAS A146A/T, read-out: IC50, Single Agent, Compound B): 56 ± 39 nM
IC50 ([4]; 12R5-5: NRAS WT, read-out: IC50, Single Agent Effect, Compound B): > 1000 nM
IC50 ([4]; Table 3, 12R5-5: NRAS WT, read-out: IC50, Single Agent, Compound B): 315 ± 212 nM
IC50 ([5]; 12R5-1: NRAS WT, read-out: IC50, Single Agent Effect, Compound B): > 1000 nM
IC50 ([5]; Table 3, 12R5-1: NRAS WT, read-out: IC50, Single Agent, Compound B): > 1000 nM
IC50 ([6]; A-375, read-out: IC50 of the combination, for Compound B): 18 to 39 nM
IC50 ([7]; Homo sapiens, single agent, read-out: IC50, cell growth inhibition): 2 to 5 nM
reduced sensitivity compared to the parental YUSIT1 cells ([7]; single agent (FIG. 9)): 3-7 fold
IC50 ([8]; n = 1, read-out: IC50, Single Agent, Compound B): 24 nM
IC50 ([9]; 12R5-3: NRAS A146A/T, read-out: IC50, Single Agent Effect, Compound B): 78 ± 29 nM
IC50 ([9]; Table 3, 12R5-3: NRAS A146A/T, read-out: IC50, Single Agent, Compound B): 132 ± 54 nM
IC50 ([10]; 16R6-3: NRAS A146A/T, read-out: IC50, Single Agent Effect, Compound B): 162 ± 67 nM
IC50 ([10]; Table 3, 16R6-3: NRAS A146A/T, read-out: IC50, Single Agent, Compound B): 137 ± 77 nM
IC50 ([11]; 12R8-3: NRAS A146A/T, read-out: IC50, Single Agent Effect, Compound B): 59 ± 37 nM
IC50 ([11]; Table 3, 12R8-3: NRAS A146A/T, n = 1, read-out: IC50, Single Agent, Compound B): 84 nM
IC50 ([12]; 16R6-4: NRAS Q61Q/K, read-out: IC50, Single Agent Effect, Compound B): > 1000 nM
IC50 ([12]; Table 3, 16R6-4: NRAS Q61Q/K, read-out: IC50, Single Agent, Compound B): 475 ± 587 nM

COc1ncc(-c2ccc3nccc(-c4ccnnc4)c3c2)cc1NS(=O)(=O)c1ccc(F)cc1F [Compound C, 2,4-difluoro-N-{2-(methyloxy)-5-[4-(4-pyridazinyl)-6-quinolinyl]-3-pyridinyl}benzenesulfonamide]
IC50 ([1]; Table 3, 16R6-2: NRAS Q61Q/K, read-out: IC50, Single Agent, Compound C): 111 ± 87 nM
IC50 ([2]; Table 3, 16R5-5: NRAS Q61Q/K, read-out: IC50, Single Agent, Compound C): 91 ± 36 nM
IC50 (A375 F11 cells; Table 3, F11: NRAS WT, read-out: IC50, Single Agent, Compound C): 98 ± 58 nM
IC50 ([3]; Table 3, 12R8-1: NRAS A146A/T, read-out: IC50, Single Agent, Compound C): 145 ± 47 nM
IC50 ([4]; Table 3, 12R5-5: NRAS WT, read-out: IC50, Single Agent, Compound C): 87 ± 1 nM
IC50 ([5]; Table 3, 12R5-1: NRAS WT, read-out: IC50, Single Agent, Compound C): 155 ± 130 nM
IC50 ([8]; n = 1, read-out: IC50, Single Agent, Compound C): 57 nM
IC50 ([9]; Table 3, 12R5-3: NRAS A146A/T, read-out: IC50, Single Agent, Compound C): 159 ± 140 nM
IC50 ([10]; Table 3, 16R6-3: NRAS A146A/T, read-out: IC50, Single Agent, Compound C): 162 ± 99 nM
IC50 ([11]; Table 3, 12R8-3: NRAS A146A/T, n = 1, read-out: IC50, Single Agent, Compound C): 375 nM
IC50 ([12]; Table 3, 16R6-4: NRAS Q61Q/K, read-out: IC50, Single Agent, Compound C): 213 ± 169 nM

CCCS(=O)(=O)Nc1ccc(F)c(C(=O)c2c[nH]c3ncc(-c4ccc(Cl)cc4)cc23)c1F [PLX4032, reference compound]
IC50 ([6]; A-375, read-out: IC50, cell growth): > 10000 nM
